8 compounds from US11034650B2, “Compounds useful for treating a Mannheimia haemolytica or Histophilus somni infection” (Intervet Inc., priority 2016, dated 2021) can be followed below.

Values after ≈ are worked out from the molar mass of the structure shown.

What all share (type): cell-based
Assay [1] concerns Mannheimia haemolytica MH 6357 (M7/2, reference strain, cattle infection strain). Description: MIC, broth-microdilution (CLSI VET01-A4), strain MH 6357. As to conditions: Mannheimia haemolytica strain MH 6357, broth-microdilution; unit assumed. In outline: (§1)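 Doubling dilution series in trays; visual read, MIC = lowest conc. with no visible turbidity; interpretation per CLSI VET01-S3.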
In general terms: In broth dilution the organism is exposed to a series of concentrations in liquid medium.

The test system of assay [2] is Mannheimia haemolytica MH 6374 (ATCC 33396, reference strain). The experiment in a line: MIC, broth-microdilution (CLSI VET01-A4), strain MH 6374. The conditions noted are these: Mannheimia haemolytica strain MH 6374, broth-microdilution; unit assumed. In outline: as §1
In assay [3] the test system is Mannheimia haemolytica MH 10720 (154, BRD field isolate). Description: MIC, broth-microdilution (CLSI VET01-A4), strain MH 10720. The conditions noted are these: Mannheimia haemolytica strain MH 10720, broth-microdilution; unit assumed. The procedure, abridged:
as §1

The test system of assay [4] is Mannheimia haemolytica MH 12587 (1071, BRD field isolate, macrolide-resistance: erm+, E+). The experiment in a line: MIC, broth-microdilution (CLSI VET01-A4), strain MH 12587. The conditions noted are these: Mannheimia haemolytica strain MH 12587, broth-microdilution; unit assumed. In outline:
as §1

Assay [5] has as its system Mannheimia haemolytica MH 13065 (XB0446-6003.9, BRD field isolate). Description: MIC, broth-microdilution (CLSI VET01-A4), strain MH 13065. The conditions noted are these: Mannheimia haemolytica strain MH 13065, broth-microdilution; unit assumed. The procedure, abridged:
as §1

Assay [6] concerns Mannheimia haemolytica MH 13093 (XB0472-6014.1, BRD field isolate). The experiment in a line: MIC, broth-microdilution (CLSI VET01-A4), strain MH 13093. The conditions noted are these: Mannheimia haemolytica strain MH 13093, broth-microdilution; unit assumed. The procedure, abridged: as §1
The test system of assay [7] is Pasteurella multocida PM 6267 (P 2225 (L386), reference strain, mouse infection strain). Description: MIC, broth-microdilution (CLSI VET01-A4), strain PM 6267. The conditions noted are these: Pasteurella multocida strain PM 6267, broth-microdilution; unit assumed. In outline: as §1
Assay [8] concerns Pasteurella multocida PM 6391 (ATCC 43137, reference strain). Description: MIC, broth-microdilution (CLSI VET01-A4), strain PM 6391. As to conditions: Pasteurella multocida strain PM 6391, broth-microdilution; unit assumed. In outline: as §1
In assay [9] the test system is Pasteurella multocida PM 10775 (080130003051, BRD field isolate). Description: MIC, broth-microdilution (CLSI VET01-A4), strain PM 10775. As to conditions: Pasteurella multocida strain PM 10775, broth-microdilution; unit assumed. The procedure, abridged: as §1
For assay [10], the system named is Pasteurella multocida PM 12080 (IV102277-0093, BRD field isolate). Description: MIC, broth-microdilution (CLSI VET01-A4), strain PM 12080. The conditions noted are these: Pasteurella multocida strain PM 12080, broth-microdilution; unit assumed. The procedure, abridged:
as §1

`CC[C@H](C)[C@H](NC(=O)c1ccc(C#Cc2ccc(CN3CC(C)OC(C)C3)cc2)cc1)C(=O)NO` (some centres unmarked) [Compound 191] returned an MIC MH 6357 in [1] of 6.3 µg/mL (≈ 13.2 µM). The compound further yielded an MIC MH 6374 in [2] of 25 µg/mL (≈ 52.3 µM). The compound also returned an MIC MH 10720 in assay [3] of 1.6 µg/mL (≈ 3.35 µM). In [4], the MIC MH 12587 came out at 25 µg/mL (≈ 52.3 µM). Also, in assay [5], the MIC MH 13065 came to 6.3 µg/mL (≈ 13.2 µM). The compound further came in with an MIC MH 13093 in [6] of 12.5 µg/mL (≈ 26.2 µM). The compound also returned an MIC PM 6267 in assay [7] of at most 0.1 µg/mL. The compound also registered an MIC PM 6391 in assay [8] of at most 0.1 µg/mL. Also, the MIC PM 10775 in [9] is at most 0.1 µg/mL. In assay [10], this compound had an MIC PM 12080 of at most 0.1 µg/mL.
For `CCNCc1ccc(C#Cc2ccc(C(=O)N[C@@H](CO)C(=O)NO)cc2)cc1` [Compound 151], the MIC MH 6357 in [1] was 6.3 µg/mL (≈ 16.5 µM). This compound returned an MIC MH 6374 in [2] of 25 µg/mL (≈ 65.5 µM). Further, in [3], the MIC MH 10720 was 3.1 µg/mL (≈ 8.13 µM). The compound also gave an MIC MH 12587 in [4] of 25 µg/mL (≈ 65.5 µM). The compound further yielded an MIC MH 13065 in [5] of 12.5 µg/mL (≈ 32.8 µM). The compound also came in with an MIC MH 13093 in assay [6] of 25 µg/mL (≈ 65.5 µM). This compound also showed an MIC PM 6267 in [7] of 3.1 µg/mL (≈ 8.13 µM). This compound showed an MIC PM 6391 in [8] of 12.5 µg/mL (≈ 32.8 µM). The compound also yielded an MIC PM 10775 in [9] of at most 0.1 µg/mL. In [10], this compound had an MIC PM 12080 of 6.3 µg/mL (≈ 16.5 µM).
In turn, `CON=C(C)[C@H](NC(=O)c1ccc(C#Cc2ccc(CNCc3ccccn3)cc2)cc1)C(=O)NO` [Compound 390] yielded an MIC MH 6357 in [1] of 0.4 µg/mL (≈ 0.824 µM). For the same compound, in assay [2], the MIC MH 6374 was 1.6 µg/mL (≈ 3.3 µM). In [3], this compound registered an MIC MH 10720 of 0.8 µg/mL (≈ 1.65 µM). In assay [4], this compound came in with an MIC MH 12587 of 0.2 µg/mL (≈ 0.412 µM). The MIC MH 13065 in assay [5] was found to be 0.8 µg/mL (≈ 1.65 µM). This compound also had an MIC MH 13093 in assay [6] of 0.8 µg/mL (≈ 1.65 µM). In assay [7], this compound returned an MIC PM 6267 of 3.1 µg/mL (≈ 6.38 µM). For the same compound, the MIC PM 6391 in assay [8] was at most 0.1 µg/mL. In [9], this compound registered an MIC PM 10775 of 0.4 µg/mL (≈ 0.824 µM). Also, the MIC PM 12080 in assay [10] worked out at 0.2 µg/mL (≈ 0.412 µM).
Regarding `CON=C(C)[C@H](NC(=O)c1ccc(C#Cc2ccc(CNCc3cccs3)cc2)cc1)C(=O)NO` [Compound 392], in assay [1], the MIC MH 6357 was 0.4 µg/mL (≈ 0.815 µM). Besides, in assay [2], the MIC MH 6374 was 0.4 µg/mL (≈ 0.815 µM). The same compound returned an MIC MH 10720 in assay [3] of 0.4 µg/mL (≈ 0.815 µM). This compound showed an MIC MH 12587 in assay [4] of at most 0.1 µg/mL. This compound came in with an MIC MH 13065 in assay [5] of 0.4 µg/mL (≈ 0.815 µM). The same compound returned an MIC MH 13093 in assay [6] of 0.4 µg/mL (≈ 0.815 µM). This compound showed an MIC PM 6267 in [7] of 1.6 µg/mL (≈ 3.26 µM). In addition, the MIC PM 6391 in assay [8] is at most 0.1 µg/mL. The MIC PM 10775 in [9] stood at 0.4 µg/mL (≈ 0.815 µM). The MIC PM 12080 in [10] is at most 0.1 µg/mL.
For the compound `CC(C)([C@H](NC(=O)c1ccc(C#Cc2ccc(CNCc3ccncc3)cc2)cc1)C(=O)NO)S(C)(=O)=O` [C.261], in [1], the MIC MH 6357 worked out at 0.4 µg/mL (≈ 0.748 µM). Besides, the MIC MH 6374 in assay [2] came out at 0.4 µg/mL (≈ 0.748 µM). In assay [3], this compound had an MIC MH 10720 of at most 0.1 µg/mL. In assay [4], this compound registered an MIC MH 12587 of 0.8 µg/mL (≈ 1.5 µM). The MIC MH 13065 in assay [5] was 0.4 µg/mL (≈ 0.748 µM). In addition, the MIC MH 13093 in assay [6] turned out to be 0.4 µg/mL (≈ 0.748 µM). For the same compound, the MIC PM 6267 in assay [7] is at most 0.1 µg/mL. Moreover, the MIC PM 6391 in assay [8] is at most 0.1 µg/mL. Further, the MIC PM 10775 in assay [9] is at most 0.1 µg/mL. This compound also displayed an MIC PM 12080 in [10] of at most 0.1 µg/mL.
Consider `Nc1ccc(C#Cc2ccc(C(=O)N[C@@H](CO)C(=O)NO)cc2)cc1` [Compound 376, 4-[2-(4-aminophenyl)ethynyl]-N-[(1S)-2-(hydroxyamino)-1-(hydroxymethyl)-2-oxo-ethyl]benzamide], for which, in assay [1], the MIC MH 6357 was 1.6 µg/mL (≈ 4.71 µM). The MIC MH 6374 in assay [2] is 3.1 µg/mL (≈ 9.14 µM). Also, the MIC MH 10720 in assay [3] turned out to be 0.8 µg/mL (≈ 2.36 µM). This compound registered an MIC MH 12587 in assay [4] of 6.3 µg/mL (≈ 18.6 µM). In assay [5], this compound showed an MIC MH 13065 of 3.1 µg/mL (≈ 9.14 µM). In addition, the MIC MH 13093 in assay [6] was determined as 6.3 µg/mL (≈ 18.6 µM). Further, in [7], the MIC PM 6267 was 0.8 µg/mL (≈ 2.36 µM). The MIC PM 6391 in assay [8] amounted to 1.6 µg/mL (≈ 4.71 µM). The MIC PM 10775 in [9] was at most 0.1 µg/mL. In [10], this compound had an MIC PM 12080 of 1.6 µg/mL (≈ 4.71 µM).
Compound `CCCNCc1ccc(C#Cc2ccc(C(=O)N[C@@H](C(C)=O)C(=O)NO)cc2)cc1` [Compound 406] showed an MIC MH 6357 in [1] of 12.5 µg/mL (≈ 30.7 µM). The compound further had an MIC MH 6374 in assay [2] of 25 µg/mL (≈ 61.4 µM). This compound also registered an MIC MH 10720 in [3] of 6.3 µg/mL (≈ 15.5 µM). The MIC MH 12587 in [4] turned out to be 1.6 µg/mL (≈ 3.93 µM). The compound further returned an MIC MH 13065 in [5] of 25 µg/mL (≈ 61.4 µM). In assay [6], this compound came in with an MIC MH 13093 of 12.5 µg/mL (≈ 30.7 µM). This compound yielded an MIC PM 6267 in assay [7] of 25 µg/mL (≈ 61.4 µM). Besides, the MIC PM 6391 in [8] was 0.2 µg/mL (≈ 0.491 µM). The same compound registered an MIC PM 10775 in [9] of 3.1 µg/mL (≈ 7.61 µM). Also, in [10], the MIC PM 12080 was 3.1 µg/mL (≈ 7.61 µM).
`CN1CCN(Cc2ccc(C#Cc3ccc(C(=O)N[C@@H](CO)C(=O)NO)cc3)cc2)CC1` [Compound 146] yielded an MIC MH 6357 in assay [1] of 6.3 µg/mL (≈ 14.4 µM). In [2], this compound gave an MIC MH 6374 of 25 µg/mL (≈ 57.3 µM). In assay [3], this compound gave an MIC MH 10720 of 1.6 µg/mL (≈ 3.67 µM). In assay [4], the MIC MH 12587 is 25 µg/mL (≈ 57.3 µM). In assay [5], the MIC MH 13065 turned out to be 12.5 µg/mL (≈ 28.6 µM). This compound also returned an MIC MH 13093 in [6] of 25 µg/mL (≈ 57.3 µM). In assay [7], this compound displayed an MIC PM 6267 of 0.8 µg/mL (≈ 1.83 µM). In assay [8], the MIC PM 6391 came to 1.6 µg/mL (≈ 3.67 µM). For the same compound, the MIC PM 10775 in assay [9] was at most 0.1 µg/mL. For the same compound, the MIC PM 12080 in assay [10] is at most 0.1 µg/mL.
